Assay results as given in ChEMBL document CHEMBL1201862, “PubChem BioAssay data set” (2004).
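Five concentrations, 48 hours, 96-well plates. GI50 marks 50% less growth.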 Activity calls are given as the source filed them. Rule as the data show it: active = GI50 up to about 1.1 µM and inactive = higher. Square brackets hold non-standard residues; d marks the D form. Peptide text beside a SMILES is read from it. * marks the point of attachment. ξ: configuration not given here. ξD = NC(CC(=O)O)C(=O)O; Ac3c = NC1(C(=O)O)CC1; Boc = CC(C)(C)OC(=O)*; OtBu = CC(C)(C)O*

Key:
Assay in all cases: growth of human tumour cells (NCI), 48 h
IGROV-1 = system: IGROV-1
RXF 393 = system: RXF 393
MDA-MB-231 = system: MDA-MB-231
786-0 = system: 786-0
HCT-116 = system: HCT-116
CCRF-CEM = system: CCRF-CEM
EKVX = system: EKVX
OVCAR-3 = system: OVCAR-3
SK-MEL-28 = system: SK-MEL-28
SNB-19 = system: SNB-19
MDA-N = system: MDA-N
NCI/ADR-RES = system: NCI/ADR-RES
HCC 2998 = system: HCC 2998
NCI-H460 = system: NCI-H460
K562 = system: K562
LOX IMVI = system: LOX IMVI
OVCAR-5 = system: OVCAR-5
MCF7 = system: MCF7
RPMI-8226 = system: RPMI-8226
HOP-92 = system: HOP-92

SMILES | GI50 (IGROV-1) | GI50 (RXF 393) | GI50 (MDA-MB-231) | GI50 (786-0) | GI50 (HCT-116) | GI50 (CCRF-CEM) | GI50 (EKVX) | GI50 (OVCAR-3) | GI50 (SK-MEL-28) | GI50 (SNB-19) | GI50 (MDA-N) | GI50 (NCI/ADR-RES) | GI50 (HCC 2998) | GI50 (NCI-H460) | GI50 (K562) | GI50 (LOX IMVI) | GI50 (OVCAR-5) | GI50 (MCF7) | GI50 (RPMI-8226) | GI50 (HOP-92)
CCCSc1cc(Cl)c(C)cc1S(=O)(=O)n1ccnc1O | > 100 µM (inactive) | > 100 µM (inactive) | > 100 µM (inactive) | > 100 µM (inactive) | > 100 µM (inactive) | > 100 µM (inactive) | > 100 µM (inactive) | > 100 µM (inactive) | > 100 µM (inactive) | > 100 µM (inactive) | > 100 µM (inactive) | > 100 µM (inactive) | > 100 µM (inactive) | > 100 µM (inactive) | > 100 µM (inactive) | > 100 µM (inactive) | > 100 µM (inactive) | > 100 µM (inactive) |  | 
CCCCCCCCCCCCCCCCCCNc1ccn(C2OC(COP(=O)(O)OCC3OC(n4cc(C)c(=O)[nH]c4=O)CC3N=[N+]=[N-])C(O)C2O)c(=O)n1 (stereo not given) | 19.1 µM (inactive) |  | 22.1 µM (inactive) | 29.5 µM (inactive) | 39.7 µM (inactive) | 15.5 µM (inactive) | 26.3 µM (inactive) | 36.9 µM (inactive) | 18.6 µM (inactive) | 19.2 µM (inactive) | 43.7 µM (inactive) | 21 µM (inactive) | 15.1 µM (inactive) | 21 µM (inactive) | 18.7 µM (inactive) | 16.4 µM (inactive) | 16.7 µM (inactive) | 37 µM (inactive) | 11.8 µM (inactive) | 59.6 µM (inactive)
COC(=O)C1(NC(=O)C(CC(=O)OC(C)(C)C)NC(=O)OC(C)(C)C)CC1 (stereo not given) (Boc-[ξD](OtBu)-[Ac3c]-OMe) | > 100 µM (inactive) | > 100 µM (inactive) | > 100 µM (inactive) | > 100 µM (inactive) | > 100 µM (inactive) | > 100 µM (inactive) | > 100 µM (inactive) | > 100 µM (inactive) | > 100 µM (inactive) | > 100 µM (inactive) | > 100 µM (inactive) | > 100 µM (inactive) | > 100 µM (inactive) | > 100 µM (inactive) | > 100 µM (inactive) | > 100 µM (inactive) | > 100 µM (inactive) | > 100 µM (inactive) | > 100 µM (inactive) | 
NC1C2C(CC(=O)O)OCC=C3CN4CCC1(C(=O)C(=O)O)C4CC32 (stereo not given) | > 100 µM (inactive) | > 100 µM (inactive) | > 100 µM (inactive) | > 100 µM (inactive) | > 100 µM (inactive) | > 100 µM (inactive) | > 100 µM (inactive) | > 100 µM (inactive) | > 100 µM (inactive) | > 100 µM (inactive) | > 100 µM (inactive) | > 100 µM (inactive) |  | > 100 µM (inactive) | > 100 µM (inactive) | > 100 µM (inactive) | > 100 µM (inactive) | > 100 µM (inactive) |  | > 100 µM (inactive)
CN(C)c1ccc(/C=C/C(=O)N[C@@H]2C(=O)N3[C@@H]2SC(C)(C)[C@@H]3C(=O)O)cc1 |  | > 100 µM (inactive) | > 100 µM (inactive) | > 100 µM (inactive) | 58.9 µM (inactive) | > 100 µM (inactive) | > 100 µM (inactive) | > 100 µM (inactive) | > 100 µM (inactive) | > 100 µM (inactive) | > 100 µM (inactive) | > 100 µM (inactive) | > 100 µM (inactive) | > 100 µM (inactive) | > 100 µM (inactive) | > 100 µM (inactive) | > 100 µM (inactive) | > 100 µM (inactive) | > 100 µM (inactive) | 
COc1ccc(/C=C2\C=Cc3ccccc32)cc1OC | 73.8 µM (inactive) | 50.4 µM (inactive) | 78.3 µM (inactive) | 57.5 µM (inactive) | 91.2 µM (inactive) | 57.1 µM (inactive) | 22.5 µM (inactive) | > 100 µM (inactive) | > 100 µM (inactive) | > 100 µM (inactive) | > 100 µM (inactive) | > 100 µM (inactive) | > 100 µM (inactive) | > 100 µM (inactive) | 29.8 µM (inactive) | > 100 µM (inactive) | > 100 µM (inactive) | > 100 µM (inactive) |  | 6.49 µM (inactive)
COc1cc(OC)c(OC)cc1/C=C1\C=Cc2ccccc21 | 26.9 µM (inactive) | 11.4 µM (inactive) | 12.6 µM (inactive) | 28.1 µM (inactive) | 5.65 µM (inactive) | 16.3 µM (inactive) | 19.2 µM (inactive) |  | 15.7 µM (inactive) | > 10 µM (inactive) | 9.18 µM (inactive) | 17.4 µM (inactive) | 13.5 µM (inactive) | 10.3 µM (inactive) | 5.5 µM (inactive) | 13 µM (inactive) | 12.5 µM (inactive) | 12.1 µM (inactive) | 10.8 µM (inactive) | 
Nc1ccnc2c1ncn2[C@H]1C[C@H](O)[C@@H](CO)O1 | > 100 µM (inactive) | > 100 µM (inactive) | > 100 µM (inactive) | > 100 µM (inactive) | > 100 µM (inactive) | > 100 µM (inactive) | > 100 µM (inactive) | > 100 µM (inactive) | > 100 µM (inactive) | > 100 µM (inactive) | > 100 µM (inactive) | > 100 µM (inactive) | > 100 µM (inactive) | > 100 µM (inactive) |  | > 100 µM (inactive) | > 100 µM (inactive) | > 100 µM (inactive) |  | > 100 µM (inactive)
OC1CC(O)c2c(Cl)sc(Cl)c21 (stereo not given) | > 100 µM (inactive) | < 0.01 µM (active) | 32.1 µM (inactive) | 34.4 µM (inactive) | 31.4 µM (inactive) | 46.1 µM (inactive) | 5.21 µM (inactive) | 14.8 µM (inactive) | 29.9 µM (inactive) |  | > 100 µM (inactive) | 43.6 µM (inactive) |  | 21.8 µM (inactive) | 62.8 µM (inactive) | 52.6 µM (inactive) | 28.8 µM (inactive) | 31.1 µM (inactive) |  | 23.4 µM (inactive)
CCc1n[nH]c(=O)n1-n1c(C)ccc1C | > 100 µM (inactive) | > 100 µM (inactive) | > 100 µM (inactive) | > 100 µM (inactive) | > 100 µM (inactive) | > 100 µM (inactive) | > 100 µM (inactive) | > 100 µM (inactive) | > 100 µM (inactive) | > 100 µM (inactive) | > 100 µM (inactive) | > 100 µM (inactive) | > 100 µM (inactive) | > 100 µM (inactive) | > 100 µM (inactive) | > 100 µM (inactive) | > 100 µM (inactive) | > 100 µM (inactive) | > 100 µM (inactive) | 
CC(C#N)N(CCc1ccccc1)C(=O)c1ccccc1 (stereo not given) | > 100 µM (inactive) | > 100 µM (inactive) | > 100 µM (inactive) | > 100 µM (inactive) | > 100 µM (inactive) | > 100 µM (inactive) | > 100 µM (inactive) | > 100 µM (inactive) |  | > 100 µM (inactive) | > 100 µM (inactive) | > 100 µM (inactive) | > 100 µM (inactive) |  | > 100 µM (inactive) | > 100 µM (inactive) | > 100 µM (inactive) | > 100 µM (inactive) | > 100 µM (inactive) | 
O=C(c1ccco1)C1CC(c2ccc3ccccc3c2O)=NN1c1ccc([N+](=O)[O-])cc1[N+](=O)[O-] (stereo not given) | 14 µM (inactive) | 29.9 µM (inactive) | 20.7 µM (inactive) | 31 µM (inactive) | 23.1 µM (inactive) | 2.29 µM (inactive) |  | 28.1 µM (inactive) | 40.6 µM (inactive) |  | 28.6 µM (inactive) | 21.1 µM (inactive) | 27.7 µM (inactive) | 10.5 µM (inactive) |  |  | 16 µM (inactive) | 12.8 µM (inactive) |  | 12.4 µM (inactive)
COc1cc(CCC(=O)O)c2cc3ccccc3cc2c1O | 18.7 µM (inactive) |  | 18.9 µM (inactive) | 16.8 µM (inactive) | 17.2 µM (inactive) | 3.22 µM (inactive) | 24.7 µM (inactive) | 21.4 µM (inactive) | 22.4 µM (inactive) | 23.5 µM (inactive) | 17.3 µM (inactive) | 25.6 µM (inactive) | 29 µM (inactive) | 23.2 µM (inactive) | 20.8 µM (inactive) | 21.5 µM (inactive) | 20.4 µM (inactive) | 16.4 µM (inactive) | 12.4 µM (inactive) | 30.9 µM (inactive)
NC1=Nc2ccccc2Sc2nc3ccccc3n21 | 34.4 µM (inactive) | 19.4 µM (inactive) | 19.1 µM (inactive) | 2.23 µM (inactive) | 5.47 µM (inactive) | 3.33 µM (inactive) |  | 8.02 µM (inactive) |  | 50.1 µM (inactive) | 5.13 µM (inactive) | 27 µM (inactive) |  | 17.2 µM (inactive) | 9.38 µM (inactive) | 18.9 µM (inactive) | 8.15 µM (inactive) | 5.53 µM (inactive) | 4.46 µM (inactive) | 22.7 µM (inactive)
Cc1ccc(S(=O)(=O)n2cncc2CO)cc1 | > 100 µM (inactive) | > 100 µM (inactive) | > 100 µM (inactive) | > 100 µM (inactive) | > 100 µM (inactive) | > 100 µM (inactive) | > 100 µM (inactive) | > 100 µM (inactive) | > 100 µM (inactive) | > 100 µM (inactive) | > 100 µM (inactive) | > 100 µM (inactive) | > 100 µM (inactive) | > 100 µM (inactive) | > 100 µM (inactive) | > 100 µM (inactive) | > 100 µM (inactive) | > 100 µM (inactive) | > 100 µM (inactive) | 
